Results taken from paper PMC11204923, “Marine Cytotoxin Santacruzamate A Derivatives as Potent HDAC1-3 Inhibitors and Their Synergistic Anti-Leukemia Effects with Venetoclax” (Marine Drugs, 2024).

How the values were obtained:
Type in all cases: biochemical
[1] = molecular target: T1, HDAC1 (Homo sapiens, UniProt Q13547); experiment: In vitro HDAC inhibition fluorescence assay, HDAC1; conditions: for inhibition at 0.01 µM: 10 nM; for inhibition at 0.01 µM / inhibition at 0.1 µM: read-out: Inhibition Rate of HDAC1 (%); for inhibition at 0.1 µM: 100 nM
T1 construct: purchased BPS Bioscience
Procedure: (§1) All of the HDAC enzymes were purchased from BPS Bioscience. In vitro HDAC inhibition assays were conducted as previously described. In brief, 20 μL of recombinant HDAC enzyme solution (HDAC1-9, 11) was mixed with various concentrations of the tested compound (20 μL). […] After incubation at 37 °C for 2 h, the catalysis was stopped by the addition of 10 μL of developer containing 30 mg/mL trypsin and 6 μM trichostatin A (TSA). Then, 30 min later, the fluorescence intensity was measured using a microplate reader at excitation and emission wavelengths of 360 and 460 nm, respectively. The inhibition ratios were calculated from the fluorescence intensity readings of tested wells relative to those of control wells, and the IC50 curves and values were determined by GraphPad Prism 6.0, using the “log(inhibitor) vs. normalized response-variable slope” function.

[2] = molecular target: T2, HDAC3 (Homo sapiens, UniProt O15379); experiment: In vitro HDAC inhibition fluorescence assay, HDAC3; conditions: for inhibition at 0.01 µM: 10 nM; for inhibition at 0.01 µM / inhibition at 0.1 µM: read-out: Inhibition Rate of HDAC3 (%); for inhibition at 0.1 µM: 100 nM
T2 construct: purchased BPS Bioscience
Procedure: as §1

[3] = molecular target: T3, HDAC2 (Homo sapiens, UniProt Q92769); experiment: In vitro HDAC inhibition fluorescence assay, HDAC2
T3 construct: purchased BPS Bioscience
Procedure: as §1

T3 sequence (Q92769 whole entry): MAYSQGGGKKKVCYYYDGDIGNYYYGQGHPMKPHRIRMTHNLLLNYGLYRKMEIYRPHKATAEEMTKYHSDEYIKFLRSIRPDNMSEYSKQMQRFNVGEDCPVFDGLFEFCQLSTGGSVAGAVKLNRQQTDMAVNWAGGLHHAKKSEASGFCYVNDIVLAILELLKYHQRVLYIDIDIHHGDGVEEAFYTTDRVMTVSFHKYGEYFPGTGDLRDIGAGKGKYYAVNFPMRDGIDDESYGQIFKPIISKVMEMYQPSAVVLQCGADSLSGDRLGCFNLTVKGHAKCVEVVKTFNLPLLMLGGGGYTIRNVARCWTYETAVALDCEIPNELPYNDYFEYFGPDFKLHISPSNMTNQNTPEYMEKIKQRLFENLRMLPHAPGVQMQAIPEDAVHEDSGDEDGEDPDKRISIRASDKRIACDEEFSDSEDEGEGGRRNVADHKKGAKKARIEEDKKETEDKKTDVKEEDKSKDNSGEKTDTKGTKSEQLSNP
T2 sequence (O15379 whole entry): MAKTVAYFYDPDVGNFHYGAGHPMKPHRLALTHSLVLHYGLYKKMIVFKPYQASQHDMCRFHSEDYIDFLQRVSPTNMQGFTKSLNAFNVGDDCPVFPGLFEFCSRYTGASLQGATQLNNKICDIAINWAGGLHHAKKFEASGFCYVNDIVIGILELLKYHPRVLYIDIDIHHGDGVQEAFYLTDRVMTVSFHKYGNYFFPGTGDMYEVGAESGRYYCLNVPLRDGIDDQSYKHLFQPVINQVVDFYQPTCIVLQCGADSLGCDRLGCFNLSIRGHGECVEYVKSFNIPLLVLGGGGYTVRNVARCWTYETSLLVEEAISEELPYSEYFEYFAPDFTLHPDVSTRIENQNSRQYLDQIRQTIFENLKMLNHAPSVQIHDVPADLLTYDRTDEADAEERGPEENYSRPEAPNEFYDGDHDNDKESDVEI
T2 sequence (Q9Y618 395-489 partner limits assumed): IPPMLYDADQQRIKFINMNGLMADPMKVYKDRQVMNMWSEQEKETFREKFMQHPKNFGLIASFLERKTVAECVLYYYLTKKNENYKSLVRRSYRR
T1 sequence (Q13547 whole entry): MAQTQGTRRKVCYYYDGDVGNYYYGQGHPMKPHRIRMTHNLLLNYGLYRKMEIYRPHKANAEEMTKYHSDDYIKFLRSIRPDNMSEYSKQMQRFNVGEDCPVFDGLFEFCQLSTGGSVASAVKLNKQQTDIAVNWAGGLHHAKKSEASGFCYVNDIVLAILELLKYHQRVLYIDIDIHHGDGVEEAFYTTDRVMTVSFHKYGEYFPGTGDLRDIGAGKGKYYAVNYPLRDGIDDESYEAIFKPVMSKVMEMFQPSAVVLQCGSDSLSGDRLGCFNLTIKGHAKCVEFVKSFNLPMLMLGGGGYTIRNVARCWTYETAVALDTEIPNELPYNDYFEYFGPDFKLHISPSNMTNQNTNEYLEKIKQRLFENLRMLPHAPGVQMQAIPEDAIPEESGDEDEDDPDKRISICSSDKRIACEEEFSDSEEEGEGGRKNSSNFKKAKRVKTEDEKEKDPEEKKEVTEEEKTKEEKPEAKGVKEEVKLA

Structure (SMILES) | inhibition at 0.01 µM [1] | inhibition at 0.1 µM [1] | inhibition at 0.01 µM [2] | inhibition at 0.1 µM [2] | IC50 [3] | IC50 [1] | IC50 [2]
CCCNNC(=O)CCC(=O)NCCc1ccccc1 [Compound 9a, 4-Oxo-N-phenethyl-4-(2-propylhydrazineyl)butanamide] | 2.2 ± 2.3% | 0.3 ± 1.7% | -0.6 ± 1.9% | 11.1 ± 0.5% |  |  | 
CCCNNC(=O)CCCC(=O)NCCc1ccccc1 [Compound 9b, 5-Oxo-N-phenethyl-5-(2-propylhydrazineyl)pentanamide] | -9.2 ± 1.4% | 3.1 ± 1.1% | 11.5 ± 0.7% | 53.7% |  |  | 
CCCNNC(=O)CCCCC(=O)NCCc1ccccc1 [Compound 9c, 6-Oxo-N-phenethyl-6-(2-propylhydrazineyl)hexanamide] | -6 ± 1.2% | 27.5 ± 0.6% | 18.2 ± 2.9% | 61.9 ± 0.7% |  |  | 
CCCNNC(=O)CCCCCC(=O)NCCc1ccccc1 [Compound 9d, 7-Oxo-N-phenethyl-7-(2-propylhydrazineyl)heptanamide] | 5.58 ± 2.39% | 52 ± 2.86% | 21.2 ± 1.5% | 76.82 ± 0.47% |  |  | 
CCCNNC(=O)CCCCCCC(=O)NCCc1ccccc1 [Compound 9e, 8-Oxo-N-phenethyl-8-(2-propylhydrazineyl)octanamide] | 12 ± 0.9% | 65.6 ± 0.1% | 38.8 ± 3% | 85.5 ± 0.6% |  |  | 
CCCNNC(=O)CCCCCCCC(=O)NCCc1ccccc1 [Compound 9f, 9-Oxo-N-phenethyl-9-(2-propylhydrazineyl)nonanamide] | 15.9 ± 1.6% | 57.1 ± 0.7% | 19.6 ± 8% | 79.9 ± 0.8% |  |  | 
CCCNNC(=O)c1ccc(C(=O)NCCc2ccccc2)cc1 [Compound 9g, N-Phenethyl-4-(2-propylhydrazine-1-carbonyl)benzamide] | 23.5 ± 2% | 30.1 ± 2.1% | 11.2 ± 8% | 50.6 ± 5.4% |  |  | 
CCCNNC(=O)c1ccc(CC(=O)NCCc2ccccc2)cc1 [Compound 9h, N-Phenethyl-2-(4-(2-propylhydrazine-1-carbonyl)phenyl)acetamide] | 5.61 ± 1.6% | 10.1 ± 0.7% | -4.61 ± 13.6% | -5.9 ± 0.6% |  |  | 
CCCNNC(=O)Cc1ccc(C(=O)NCCc2ccccc2)cc1 [Compound 9i, 4-(2-Oxo-2-(2-propylhydrazineyl)ethyl)-N-phenethylbenzamide] | 12.5 ± 0.2% | 16.4 ± 1.2% | -0.8 ± 4.2% | -3.1 ± 3.4% |  |  | 
CCCNNC(=O)C=Cc1ccc(C(=O)NCCc2ccccc2)cc1 [Compound 9j, 4-(3-Oxo-3-(2-propylhydrazineyl)prop-1-en-1-yl)-N-phenethylbenzamide] | 32.8 ± 0.1% | 76.7 ± 0.3% |  |  | 69.4 ± 3.4 nM | 35.8 ± 3.6 nM | 
CCCNNC(=O)CCc1ccc(C(=O)NCCc2ccccc2)cc1 [Compound 9k, 4-(3-Oxo-3-(2-propylhydrazineyl)propyl)-N-phenethylbenzamide] | 23.1 ± 2.1% | 67.9 ± 1.4% |  |  | 374 ± 21.7 nM | 122 ± 18.6 nM | 
CCCNNC(=O)c1ccc(C=CC(=O)NCCc2ccccc2)cc1 [Compound 9l, N-Phenethyl-3-(4-(2-propylhydrazine-1-carbonyl)phenyl)acrylamide] | 36.5 ± 2.1% | 74.5 ± 0.3% | 78.1 ± 0.1% | 87.2 ± 2.6% | 116 ± 11.4 nM | 37.4 ± 5.8 nM | 6 ± 1.7 nM
CCCNNC(=O)c1ccc(CCC(=O)NCCc2ccccc2)cc1 [Compound 9m, N-Phenethyl-3-(4-(2-propylhydrazine-1-carbonyl)phenyl)propanamide] | 21.2 ± 0.9% | 67.3 ± 2.8% | 27.2 ± 2.7% | 80.7 ± 0.7% |  |  | 
CCCNNC(=O)CCCNC(=O)Cc1ccccc1 [Compound 14a, N-(4-Oxo-4-(2-propylhydrazineyl)butyl)-2-phenylacetamide] | -7 ± 2.6% | 2.3 ± 2.4% | 2.4 ± 2.9% | 18.2 ± 3.3% |  |  | 
CCCNNC(=O)CCCCNC(=O)Cc1ccccc1 [Compound 14b, N-(5-Oxo-5-(2-propylhydrazineyl)pentyl)-2-phenylacetamide] | -9.04 ± 0.1% | 7.7 ± 2.1% | 16.6 ± 3.2% | 45.2 ± 1.1% |  |  | 
CCCNNC(=O)CCCCCNC(=O)Cc1ccccc1 [Compound 14c, N-(6-Oxo-6-(2-propylhydrazineyl)hexyl)-2-phenylacetamide] | -6.8 ± 2.1% | 14.4 ± 2.4% | 16.1 ± 3.3% | 54.4 ± 0.7% |  |  | 
CCCNNC(=O)CCCCCCNC(=O)Cc1ccccc1 [Compound 14d, N-(7-Oxo-7-(2-propylhydrazineyl)heptyl)-2-phenylacetamide] | 1.9 ± 3.7% | 43.2 ± 0.1% | 21.2 ± 1.5% | 76.8 ± 0.4% |  |  | 
CCCNNC(=O)CCCCCCCNC(=O)Cc1ccccc1 [Compound 14e, N-(8-Oxo-8-(2-propylhydrazineyl)octyl)-2-phenylacetamide] | 8.8 ± 3.7% | 51.6 ± 0.9% | 23.1 ± 0.1% | 71.5 ± 0.7% |  |  | 
CCCNNC(=O)CCCCCCCCNC(=O)Cc1ccccc1 [Compound 14f, N-(9-Oxo-9-(2-propylhydrazineyl)nonyl)-2-phenylacetamide] | 9.8 ± 0.4% | 32.7 ± 1.2% | 3.2 ± 10.6% | 48.8 ± 1.1% |  |  | 
CCCNNC(=O)C=Cc1ccc(C(=O)NC2Cc3ccccc3C2)cc1 [Compound 19a, N-(2,3-Dihydro-1H-inden-2-yl)-4-(3-oxo-3-(2-propylhydrazineyl)prop-1-en-1-yl)benzamide] | 8.1 ± 0.3% | 39.9 ± 0.6% | 37.4 ± 0.1% | 78.2 ± 0.5% |  |  | 
CCCNNC(=O)C=Cc1ccc(C(=O)N2CCc3ccccc3C2)cc1 [Compound 19b, N′-Propyl-3-(4-(1,2,3,4-tetrahydroisoquinoline-2-carbonyl)phenyl)acrylohydrazide] | -4.6 ± 2.1% | -0.4 ± 1.7% | -1.1 ± 2.3% | 18.3 ± 0.5% |  |  | 
CCCNNC(=O)C=Cc1ccc(C(=O)N2CCc3cc(Br)ccc3C2)cc1 [Compound 19c, 3-(4-(6-Bromo-1,2,3,4-tetrahydroisoquinoline-2-carbonyl)phenyl)-N′-propylacrylohydrazide] | 1.5 ± 1.5% | 27.2 ± 2.8% | 4.1 ± 9.9% | 38.1 ± 0.8% |  |  | 
CCCNNC(=O)C=Cc1ccc(C(=O)N2CCc3ccc(Br)cc3C2)cc1 [Compound 19d, 3-(4-(7-Bromo-1,2,3,4-tetrahydroisoquinoline-2-carbonyl)phenyl)-N′-propylacrylohydrazide] | -1.4 ± 0.5% | 38.2 ± 2.3% | -0.4 ± 3.4% | 34.8 ± 1.2% |  |  | 
CCCNNC(=O)C=Cc1ccc(CNc2ccccc2)cc1 [Compound 25a, 3-(4-((Phenylamino)methyl)phenyl)-N′-propylacrylohydrazide] | 14.2 ± 1.5% | 60.7 ± 0.7% | 49.2 ± 0.9% | 80.4 ± 0.7% | 224 ± 19.4 nM | 96.5 ± 1.1 nM | 8.2 ± 0.9 nM
CCCNNC(=O)C=Cc1ccc(CNCc2ccccn2)cc1 [Compound 25d, N′-Propyl-3-(4-(((pyridin-2-ylmethyl)amino)methyl)phenyl)acrylohydrazide] | 9.3 ± 2.3% | 61.7 ± 1.1% | 62.5 ± 0.4% | 86.9 ± 0.1% | 314 ± 36.7 nM | 101 ± 27 nM | 13 ± 6.4 nM
CCCNNC(=O)C=Cc1ccc(CNc2cccc3ccccc23)cc1 [Compound 25f, 3-(4-((Naphthalen-1-ylamino)methyl)phenyl)-N′-propylacrylohydrazide] | 31.3% | 71.2 ± 0.9% | 25.7 ± 1.3% | 60.7 ± 0.5% |  |  | 
CCCNNC(=O)C=Cc1ccc(CN2C(=O)c3ccccc3C2=O)cc1 [Compound 30, 3-(4-((1,3-Dioxoisoindolin-2-yl)methyl)phenyl)-N′-propylacrylohydrazide] | 5.1 ± 1.3% | 28.4 ± 1.1% | 53.9 ± 0.4% | 85.1 ± 0.1% | 651.9 ± 3.4 nM | 136 ± 20.6 nM | 27.8 ± 1.8 nM
